According to PubChem BioAssay AID248 (DTP/NCI, 2004):
Values joined by “and” are separate entries in the source; they are usually repeats but may differ in a detail not shown here. Identical values can stand only once. Toxic doses and inconclusive results are not listed.

System: L1210 leukemia ip in BDF1 mice, survival T/C
Test: NCI In Vivo Anticancer Drug Screen. Data for tumor model L1210 Leukemia (intraperitoneal) in B6D2F1 (BDF1) mice
Details: endpoint: mean survival time, higher = longer survival
In short: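 Each compound was tested against a transplantable tumor grown in mice. The endpoint was survival, with treated animals benchmarked against vehicle controls as a simple ratio.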

[1] = dose: 100.0 mg/kg/injection, schedule: Q01DX009 (ip), vehicle: Klucel (hydroxypropylcellulose) (HPC)
[2] = dose: 100.0 mg/kg/injection, schedule: Q04DX003 (ip), vehicle: Klucel (hydroxypropylcellulose) (HPC)
[3] = dose: 200.0 mg/kg/injection, schedule: Q01DX009 (ip), vehicle: Klucel (hydroxypropylcellulose) (HPC)
[4] = dose: 200.0 mg/kg/injection, schedule: Q04DX003 (ip), vehicle: Klucel (hydroxypropylcellulose) (HPC)
[5] = dose: 400.0 mg/kg/injection, schedule: Q01DX009 (ip), vehicle: Klucel (hydroxypropylcellulose) (HPC)
[6] = dose: 25.0 mg/kg/injection, schedule: Q01DX001 (ip), vehicle: carboxymethylcellulose (CMC)
[7] = dose: 50.0 mg/kg/injection, schedule: Q01DX001 (ip), vehicle: carboxymethylcellulose (CMC)
[8] = dose: 100.0 mg/kg/injection, schedule: Q04DX003 (ip), vehicle: saline with Tween-80
[9] = dose: 200.0 mg/kg/injection, schedule: Q04DX003 (ip), vehicle: saline with Tween-80
[10] = dose: 400.0 mg/kg/injection, schedule: Q04DX003 (ip), vehicle: saline with Tween-80
[11] = dose: 100.0 mg/kg/injection, schedule: Q01DX001 (ip), vehicle: saline with Tween-80
[12] = dose: 100.0 mg/kg/injection, schedule: Q01DX009 (ip), vehicle: saline with Tween-80
[13] = dose: 200.0 mg/kg/injection, schedule: Q01DX001 (ip), vehicle: saline with Tween-80
[14] = dose: 200.0 mg/kg/injection, schedule: Q01DX009 (ip), vehicle: saline with Tween-80
[15] = dose: 400.0 mg/kg/injection, schedule: Q01DX001 (ip), vehicle: saline with Tween-80
[16] = dose: 400.0 mg/kg/injection, schedule: Q04DX003 (ip), vehicle: Klucel (hydroxypropylcellulose) (HPC)
[17] = dose: 50.0 mg/kg/injection, schedule: Q01DX001 (ip), vehicle: Klucel (hydroxypropylcellulose) (HPC)
[18] = dose: 100.0 mg/kg/injection, schedule: Q01DX001 (ip), vehicle: Klucel (hydroxypropylcellulose) (HPC)
[19] = dose: 200.0 mg/kg/injection, schedule: Q01DX001 (ip), vehicle: Klucel (hydroxypropylcellulose) (HPC)

SMILES: CC1(C#N)CC(c2ccccc2)Nc2ccccc2N1 (stereo unspecified)
- T/C [1]: 92 % of control
- T/C [2]: 98 % of control
- T/C [3]: 100 % of control
- T/C [4]: 96 % of control
- T/C (dose: 264.0 mg/kg/injection, schedule: Q04DX003 (ip), vehicle: Klucel (hydroxypropylcellulose) (HPC)): 96 % of control and 97 % of control
- T/C [5]: 97 % of control

SMILES: CCCCCCCCCCC[As](=O)(O)O
- T/C (dose: 12.5 mg/kg/injection, schedule: Q01DX001 (ip), vehicle: carboxymethylcellulose (CMC)): 108 % of control
- T/C [6]: 96 % of control
- T/C [7]: 104 % of control

SMILES: CC(=O)N/N=C(/C)C(=O)O
- T/C (dose: 50.0 mg/kg/injection, schedule: Q01DX009 (ip), vehicle: water): 100 % of control
- T/C (dose: 100.0 mg/kg/injection, schedule: Q01DX009 (ip), vehicle: water): 100 % of control
- T/C (dose: 100.0 mg/kg/injection, schedule: Q04DX003 (ip), vehicle: water): 97 % of control
- T/C (dose: 200.0 mg/kg/injection, schedule: Q04DX003 (ip), vehicle: water): 106 % of control

SMILES: CCOC(=O)NC(=S)NN
- T/C (dose: 100.0 mg/kg/injection, schedule: Q01DX009 (ip), vehicle: saline): 105 % of control
- T/C (dose: 200.0 mg/kg/injection, schedule: Q01DX009 (ip), vehicle: saline): 110 % of control

SMILES: C=C(C)CSc1ncnc2nc[nH]c12
- T/C (dose: 52.0 mg/kg/injection, schedule: Q01DX Z (ip), vehicle: other): 112 % of control
- T/C (dose: 80.0 mg/kg/injection, schedule: Q01DX Z (ip), vehicle: other): 112 % of control
- T/C (dose: 120.0 mg/kg/injection, schedule: Q01DX Z (ip), vehicle: other): 124 % of control

SMILES: S=P(c1ccccc1)(c1ccccc1)P(=S)(c1ccccc1)c1ccccc1
- T/C (dose: 100.0 mg/kg/injection, schedule: Q04DX002 (ip), vehicle: Klucel (hydroxypropylcellulose) (HPC)): 100 % of control
- T/C (dose: 200.0 mg/kg/injection, schedule: Q04DX002 (ip), vehicle: Klucel (hydroxypropylcellulose) (HPC)): 92 % of control
- T/C (dose: 400.0 mg/kg/injection, schedule: Q04DX002 (ip), vehicle: Klucel (hydroxypropylcellulose) (HPC)): 92 % of control

SMILES: C=C(C)c1c2c(Sc3ccc(C(C)(C)C)cc3)cccc2cc2cccc(Sc3ccc(C(C)(C)C)cc3)c12
- T/C [8]: 98 % of control
- T/C [9]: 93 % of control
- T/C [10]: 91 % of control

SMILES: O=c1cc(NCc2ccccc2Cl)[nH]c(=O)[nH]1
- T/C (dose: 100.0 mg/kg/injection, schedule: Q01DX001 (ip), vehicle: gum acacia): 93 % of control
- T/C (dose: 200.0 mg/kg/injection, schedule: Q01DX001 (ip), vehicle: gum acacia): 95 % of control
- T/C (dose: 400.0 mg/kg/injection, schedule: Q01DX001 (ip), vehicle: gum acacia): 101 % of control

SMILES: C=CS(=O)CCCCCCC (stereo unspecified)
- T/C (dose: 12.5 mg/kg/injection, schedule: Q04DX002 (ip), vehicle: saline with Tween-80): 106 % of control
- T/C (dose: 25.0 mg/kg/injection, schedule: Q04DX002 (ip), vehicle: saline with Tween-80): 103 % of control
- T/C (dose: 50.0 mg/kg/injection, schedule: Q04DX002 (ip), vehicle: saline with Tween-80): 109 % of control

SMILES: C/C(=N/O)c1ccc(C)s1
- T/C (dose: 100.0 mg/kg/injection, schedule: Q01DX001 (ip), vehicle: carboxymethylcellulose (CMC)): 94 % of control
- T/C (dose: 200.0 mg/kg/injection, schedule: Q01DX001 (ip), vehicle: carboxymethylcellulose (CMC)): 100 % of control
- T/C (dose: 400.0 mg/kg/injection, schedule: Q01DX001 (ip), vehicle: carboxymethylcellulose (CMC)): 100 % of control

SMILES: CCCCCCCCCCCC(=O)NC(=S)Nc1cccc(Cl)c1
- T/C [11]: 93 % of control
- T/C [12]: 107 % of control and 89 % of control
- T/C (dose: 100.0 mg/kg/injection, schedule: Q04DX002 (ip), vehicle: saline with Tween-80): 122 % of control and 91 % of control
- T/C [13]: 93 % of control
- T/C [14]: 96 % of control and 86 % of control
- T/C (dose: 200.0 mg/kg/injection, schedule: Q04DX002 (ip), vehicle: saline with Tween-80): 97 % of control and 119 % of control
- T/C [15]: 90 % of control
- T/C (dose: 400.0 mg/kg/injection, schedule: Q04DX002 (ip), vehicle: saline with Tween-80): 105 % of control and 92 % of control

SMILES: CC(NC(=O)OCc1ccccc1)C(=O)NCCC(N)=O (stereo unspecified)
- T/C [12]: 91 % of control
- T/C [14]: 88 % of control

SMILES: COC(=O)CCC1([N+](=O)[O-])CCCCC1
- T/C (dose: 16.5 mg/kg/injection, schedule: Q01DX009 (ip), vehicle: saline with Tween-80): 96 % of control
- T/C (dose: 25.0 mg/kg/injection, schedule: Q01DX009 (ip), vehicle: saline with Tween-80): 94 % of control
- T/C (dose: 25.0 mg/kg/injection, schedule: Q04DX003 (ip), vehicle: saline with Tween-80): 100 % of control
- T/C (dose: 37.5 mg/kg/injection, schedule: Q01DX009 (ip), vehicle: saline with Tween-80): 99 % of control
- T/C (dose: 50.0 mg/kg/injection, schedule: Q01DX009 (ip), vehicle: saline with Tween-80): 100 % of control
- T/C (dose: 50.0 mg/kg/injection, schedule: Q04DX003 (ip), vehicle: saline with Tween-80): 102 % of control
- T/C [12]: 94 % of control
- T/C [8]: 105 % of control

SMILES: Cc1c2c(cc3c4ccccc4n(CC4CO4)c13)C(c1ccc(Cl)cc1)=NCC2 (stereo unspecified)
- T/C (dose: 37.5 mg/kg/injection, schedule: Q04DX003 (ip), vehicle: water): 104 % of control
- T/C (dose: 75.0 mg/kg/injection, schedule: Q04DX003 (ip), vehicle: water): 100 % of control
- T/C (dose: 150.0 mg/kg/injection, schedule: Q04DX003 (ip), vehicle: water): 92 % of control
- T/C (dose: 300.0 mg/kg/injection, schedule: Q04DX003 (ip), vehicle: water): 96 % of control

SMILES: O=C(Cc1ccc([N+](=O)[O-])cc1)Nc1cccc(O)c1
- T/C [2]: 97 % of control
- T/C [4]: 108 % of control
- T/C [16]: 101 % of control

SMILES: CC(=O)CC(=O)Nc1cc(Cl)c(NC(=O)CC(C)=O)cc1Cl
- T/C [9]: 121 % of control
- T/C [10]: 88 % of control

SMILES: COc1cc([N+](=O)[O-])ccc1NC(=O)Nc1c(C)n(C)n(-c2ccccc2)c1=O
- T/C [1]: 97 % of control
- T/C [3]: 93 % of control
- T/C [5]: 93 % of control

SMILES: COc1ccc(-c2sc(N)c(C#N)c2C)cc1OC
- T/C [11]: 98 % of control
- T/C [8]: 93 % of control and 97 % of control
- T/C [13]: 93 % of control
- T/C [9]: 95 % of control and 90 % of control
- T/C [15]: 96 % of control
- T/C [10]: 97 % of control and 102 % of control

SMILES: COc1ccc(/C=C(/C)[N+](=O)[O-])cc1
- T/C [17]: 104 % of control
- T/C [18]: 97 % of control
- T/C [19]: 95 % of control and 90 % of control
- T/C (dose: 300.0 mg/kg/injection, schedule: Q01DX001 (ip), vehicle: Klucel (hydroxypropylcellulose) (HPC)): 100 % of control

SMILES: O=NN(CCCl)C(=O)N[C@@H]1CCCC[C@H]1NC(=O)N(CCCl)N=O
- T/C [6]: 180 % of control
- T/C (dose: 37.5 mg/kg/injection, schedule: Q01DX001 (ip), vehicle: carboxymethylcellulose (CMC)): 165 % of control
- T/C [7]: 215 % of control
- T/C (dose: 75.0 mg/kg/injection, schedule: Q01DX001 (ip), vehicle: carboxymethylcellulose (CMC)): 260 % of control
- T/C (dose: 100.0 mg/kg/injection, schedule: Q01DX001 (ip), vehicle: saline): 233 % of control
- T/C (dose: 150.0 mg/kg/injection, schedule: Q01DX001 (ip), vehicle: carboxymethylcellulose (CMC)): 308 % of control
- T/C (dose: 200.0 mg/kg/injection, schedule: Q01DX001 (ip), vehicle: saline): 106 % of control
- T/C (dose: 300.0 mg/kg/injection, schedule: Q01DX001 (ip), vehicle: saline): 89 % of control

SMILES: CCc1cccc(OS(=O)(=O)c2ccc([N+](=O)[O-])cc2)c1
- T/C (dose: 25.0 mg/kg/injection, schedule: Q01DX009 (ip), vehicle: Klucel (hydroxypropylcellulose) (HPC)): 95 % of control
- T/C [1]: 92 % of control

SMILES: O=C(O)C1C2CC=CCC21 (stereo unspecified)
- T/C (dose: 25.0 mg/kg/injection, schedule: Q01DX001 (ip), vehicle: Klucel (hydroxypropylcellulose) (HPC)): 102 % of control
- T/C [17]: 101 % of control
- T/C [18]: 93 % of control and 94 % of control
- T/C [2]: 101 % of control
- T/C [19]: 93 % of control
- T/C [4]: 98 % of control
- T/C (dose: 400.0 mg/kg/injection, schedule: Q01DX001 (ip), vehicle: Klucel (hydroxypropylcellulose) (HPC)): 97 % of control
- T/C [16]: 102 % of control
